Reference: patent publication US10106783B2, “HCV culture systems and direct-acting antiviral sensitivity” (Hvidovre Hospital, priority 2013, dated 2018)

Columns and labels:
[1] = test system: 5a(SA13) 5'UTR-NS5A recombinant virus; assay: High-throughput DAA treatment assay of infected Huh7.5 cells, 5a(SA13)5-5A virus; type: cell-based, hepatitis C virus; details: for EC50 fold-difference from J6/JFH1: 5a(SA13)5-5A virus, difference in sensitivity compared to J6/JFH1; for EC50 fold-difference relative to J6/JFH1, more sensitive: 5a(SA13)5-5A virus more sensitive than J6/JFH1
Procedure: (§1) Huh7.5 cells in 96-well culture plates were infected with 5′UTR-NS5A specific genotype(isolate) recombinants. For details on the 5-5A virus stocks see FIG. 3. J6/JFH1 was a first-passage stock with no mutations in the ORF. Cultures were treated with seven protease inhibitors and the NS5A inhibitor daclatasvir. Values are means of triplicates in the experiment with ±SEM.
(§2) HCV DAAs were purchased from Acme Bioscience and dissolved in dimethyl sulfoxide (Sigma). High throughput treatment assays have been previously established. Concentration-response curves, EC50 values, and 95% confidence interval were calculated in GraphPad Prism 5 as described. Cytotoxicity assays to determine the non-cytotoxic dose range of the anti-HCV drugs were performed.
(§3) Since no mutations appeared in the NS3 protease region in first-passage 5-5A recombinants, these culture viruses could be ideal models for studying the efficacy of PIs in a genotype-specific manner. We thus generated virus stocks from first-passage 1a(H77 and TN) and second-passage 3a(S52), 4a(ED43), 5a(SA13), and 6a(HK6a) 5-5A viruses (FIG. 3) for PI treatment experiments. Additionally, we generated a first-passage stock of 2a J6/JFH1. We confirmed that virus stocks used for treatment were without NS3 protease mutations (FIGS. 5-9). We tested virus sensitivity to the most advanced PIs: telaprevir (VX-950), boceprevir (SCH503034), asunaprevir (BMS-650032), simeprevir (TMC435350), vaniprevir (MK-7009), faldaprevir (BI201335), and MK-5172. […] The median effective concentration (EC50) representing the efficacy of drugs against the treated viruses was calculated from the concentration-response curves (FIGS. 2, 4 and 10). For a given inhibitor, EC50 fold-differences relative to J6/JFH1 were calculated for each genotype recombinant and used to describe whether a recombinant was more sensitive (fold-difference <1) or resistant (fold-difference >1) than J6/JFH1.

[2] = test system: 1a(TN) 5'UTR-NS5A recombinant virus; assay: High-throughput DAA treatment assay of infected Huh7.5 cells, 1a(TN)5-5A virus; type: cell-based, hepatitis C virus; details: for EC50 fold-difference from J6/JFH1: 1a(TN)5-5A virus, difference in sensitivity compared to J6/JFH1; for EC50 fold-difference relative to J6/JFH1, more sensitive: 1a(TN)5-5A virus more sensitive than J6/JFH1
Procedure: as §1, §2, §3

[3] = test system: HCV genotype 1-6 recombinant viruses; assay: High-throughput DAA treatment assay of infected Huh7.5 cells, whole panel of genotype 1-6 recombinant viruses; type: cell-based, hepatitis C virus; details: for Inhibition of genotype 1-6 recombinant viruses: infected Huh7.5 cells, concentration-response
Procedure: as §1, §2, §3

[4] = test system: 3a(S52) 5'UTR-NS5A recombinant virus; assay: High-throughput DAA treatment assay of infected Huh7.5 cells, 3a(S52)5-5A virus; type: cell-based, hepatitis C virus; details: 3a(S52)5-5A virus more resistant (less sensitive) than J6/JFH1
Procedure: as §1, §2, §3

[5] = test system: 1a(H77) 5'UTR-NS5A recombinant virus; assay: High-throughput DAA treatment assay of infected Huh7.5 cells, 1a(H77)5-5A virus; type: cell-based, hepatitis C virus; details: for EC50 fold-difference from J6/JFH1: 1a(H77)5-5A virus, difference in sensitivity compared to J6/JFH1; for EC50 fold-difference relative to J6/JFH1, more sensitive: 1a(H77)5-5A virus more sensitive than J6/JFH1
Procedure: as §1, §2, §3

[6] = test system: 6a(HK6a) 5'UTR-NS5A recombinant virus; assay: High-throughput DAA treatment assay of infected Huh7.5 cells, 6a(HK6a)5-5A virus; type: cell-based, hepatitis C virus; details: for EC50 fold-difference from J6/JFH1: 6a(HK6a)5-5A virus, difference in sensitivity compared to J6/JFH1; for EC50 fold-difference relative to J6/JFH1, more sensitive: 6a(HK6a)5-5A virus more sensitive than J6/JFH1
Procedure: as §1, §2, §3

[7] = test system: 4a(ED43) 5'UTR-NS5A recombinant virus; assay: High-throughput DAA treatment assay of infected Huh7.5 cells, 4a(ED43)5-5A virus; type: cell-based, hepatitis C virus; details: for EC50 fold-difference relative to J6/JFH1, more sensitive: 4a(ED43)5-5A virus more sensitive than J6/JFH1; for EC50 fold-difference relative to J6/JFH1, more resistant: 4a(ED43)5-5A virus more resistant than J6/JFH1
Procedure: as §1, §2, §3

[8] = test system: J6/JFH1 (HCV genotype 2a recombinant); assay: High-throughput DAA treatment assay of infected Huh7.5 cells, J6/JFH1 virus; type: cell-based; details: Hepatitis C virus, first-passage 2a J6/JFH1 stock, read-out: EC50 against J6/JFH1
Procedure: as §1, §2, §3

SMILES	EC50 fold-difference from J6/JFH1 [1]	EC50 fold-difference from J6/JFH1 [2]	Potency relative to the other tested DAAs ([3]; all genotype recombinant viruses)	Inhibition of genotype 1-6 recombinant viruses [3]	EC50 fold-difference relative to J6/JFH1, more resistant [4] [fold]	EC50 fold-difference from J6/JFH1 [5]	EC50 fold-difference from J6/JFH1 [6]	EC50 fold-difference from J6/JFH1 ([7]; 4a(ED43)5-5A virus, difference in sensitivity compared to J6/JFH1)	EC50 fold-difference relative to J6/JFH1, more sensitive [1]	EC50 [8] [nM]	EC50 fold-difference relative to J6/JFH1, more sensitive [2]	EC50 fold-difference relative to J6/JFH1, more sensitive [5]	EC50 fold-difference relative to J6/JFH1, more sensitive [6]	EC50 fold-difference relative to J6/JFH1, more sensitive [7] [fold]	EC50 fold-difference relative to J6/JFH1, more resistant [7] [fold]
C=C[C@@H]1C[C@]1(NC(=O)[C@@H]1C[C@@H]2CN1C(=O)[C@H](C(C)(C)C)NC(=O)O[C@@H]1C[C@H]1CCCCCc1nc3ccc(OC)cc3nc1O2)C(=O)NS(=O)(=O)C1CC1 [MK-5172]	less than 2 fold	less than 2 fold	the most potent PI with broad activity against HCV genotypes 1-6	concentration-dependently inhibited	~13	less than 2 fold	less than 2 fold	less than 2 fold	–	–	–	–	–	–	–
C=C[C@@H]1C[C@]1(NC(=O)[C@@H]1C[C@@H](Oc2ncc(OC)c3ccc(Cl)cc23)CN1C(=O)[C@@H](NC(=O)OC(C)(C)C)C(C)(C)C)C(=O)NS(=O)(=O)C1CC1 [asunaprevir]	–	–	–	concentration-dependently inhibited	~13	–	–	–	2-3 fold	159	2-3 fold	~5 fold	2-3 fold	~5	–
CC(C)(C)NC(=O)N[C@H](C(=O)N1C[C@H]2[C@@H]([C@H]1C(=O)NC(CC1CCC1)C(=O)C(N)=O)C2(C)C)C(C)(C)C (some centres unmarked) [boceprevir]	–	–	–	–	~2	–	–	–	–	589	–	–	~4 fold	–	~2
COC(=O)N[C@H](C(=O)N1CCC[C@H]1c1nc(-c2ccc(-c3ccc(-c4c[nH]c([C@@H]5CCCN5C(=O)[C@@H](NC(=O)OC)C(C)C)n4)cc3)cc2)c[nH]1)C(C)C [daclatasvir]	< 3 fold	< 3 fold	–	–	~6	< 3 fold	< 3 fold	–	–	–	–	–	–	~5	–
C=C[C@@H]1C[C@]1(NC(=O)[C@@H]1C[C@@H](Oc2cc(-c3csc(NC(=O)C(C)C)n3)nc3c(Br)c(OC)ccc23)CN1C(=O)[C@@H](NC(=O)OC1CCCC1)C(C)(C)C)C(=O)O [faldaprevir]	–	–	–	concentration-dependently inhibited	~17	–	–	–	~10 fold	–	~4 fold	~12 fold	~4 fold	~44	–
COc1ccc2c(O[C@@H]3C[C@H]4C(=O)N[C@]5(C(=O)NS(=O)(=O)C6CC6)C[C@H]5/C=C\CCCCN(C)C(=O)[C@@H]4C3)cc(-c3nc(C(C)C)cs3)nc2c1C [simeprevir]	less than 2 fold	less than 2 fold	–	concentration-dependently inhibited	~27	–	less than 2 fold	–	–	91	–	~10 fold	–	~10	–
CCC[C@H](NC(=O)[C@@H]1[C@H]2CCC[C@H]2CN1C(=O)[C@@H](NC(=O)[C@@H](NC(=O)c1cnccn1)C1CCCCC1)C(C)(C)C)C(=O)C(=O)NC1CC1 [telaprevir]	–	–	–	–	~4	–	–	–	–	493	–	–	~4 fold	–	~4
CC[C@@H]1C[C@]1(NC(=O)[C@@H]1C[C@@H]2CN1C(=O)[C@H](C(C)(C)C)NC(=O)OCC(C)(C)CCCCc1cccc3c1CN(C3)C(=O)O2)C(=O)NS(=O)(=O)C1CC1 [vaniprevir]	–	–	–	concentration-dependently inhibited	~22	–	–	–	3-6 fold	88	3-6 fold	3-6 fold	3-6 fold	~10	–
